In patent publication US7244727B2, “Fused bicyclic nitrogen-containing heterocycles” (Japan Tobacco Inc., priority 2002, dated 2007):
pIC50: −log10 of the molar value.

How the values were obtained:
human DGAT1 = molecular target: T1, human DGAT1 (Homo sapiens, UniProt O75907); test: DGAT Scintillation Proximity Assay (SPA) with membranes of insect cells expressing human flagtag DGAT1; type: biochemical; conditions: read-out: hDGAT1 IC50
T1 construct: made in house; host or cells: insect cells (sf9, sf21 or High Five) infected with baculovirus; total cell membranes
T1 sequence (O75907 1-488): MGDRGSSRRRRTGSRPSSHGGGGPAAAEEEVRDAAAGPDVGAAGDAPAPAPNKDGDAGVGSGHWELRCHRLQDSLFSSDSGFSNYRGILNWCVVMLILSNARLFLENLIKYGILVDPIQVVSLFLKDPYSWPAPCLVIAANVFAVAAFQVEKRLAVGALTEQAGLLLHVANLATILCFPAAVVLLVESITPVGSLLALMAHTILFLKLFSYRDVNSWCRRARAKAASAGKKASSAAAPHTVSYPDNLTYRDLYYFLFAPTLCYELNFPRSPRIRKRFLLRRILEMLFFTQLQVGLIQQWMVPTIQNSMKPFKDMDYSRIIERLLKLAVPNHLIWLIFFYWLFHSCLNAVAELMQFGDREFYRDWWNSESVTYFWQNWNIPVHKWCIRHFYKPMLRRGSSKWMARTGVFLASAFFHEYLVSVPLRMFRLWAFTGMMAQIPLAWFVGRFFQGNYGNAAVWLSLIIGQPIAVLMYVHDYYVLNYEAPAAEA
Summary of the method: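 Membranes (0.2 μg/well) from insect cells expressing human flag-tagged DGAT1 incubated with 10 μM compound and 200 μM dioleoyl glycerol substrate; mercuric chloride as inhibition control. Reaction stopped with WGA SPA beads in mercuric chloride, overnight bead coupling, then scintillation proximity signal read.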

Question: What does the source list for Cc1nc(N)c2c(n1)OC(C)(C)C(c1ccc([C@H]3CC[C@H](CC(=O)NC(C)(C)CO)CC3)cc1)=N2 [Example 2-135]?
Answer: pIC50 (human DGAT1): 7.00 to 8.00; melting point: 229 to 230 °C

Question: Which results are given for CC1(C)Oc2ncnc(N)c2N=C1c1ccc([C@H]2CC[C@H](CC(=O)N3CCN(CCO)CC3)CC2)cc1 [Example 2-97]?
Answer: pIC50 (human DGAT1): 7.00 to 8.00; melting point: 225 to 226 °C

Question: With CC1(C)Oc2ncnc(N)c2N=C1c1ccc([C@H]2CC[C@H](CNC(=O)[C@@H]3CCCN3)CC2)cc1 [Example 2-131] as the compound, how does the pIC50 (human DGAT1) read?
Answer: 7.00 to 8.00

Question: And the melting point?
Answer: 230 to 231 °C

Question: With CC(C)NC(=O)CC[C@H]1CC[C@H](c2ccc(C3=Nc4c(N)ncnc4OC3(C)C)cc2)CC1 [Example 2-187] as the compound, how does the pIC50 (human DGAT1) read?
Answer: > 8.00

Question: And the melting point?
Answer: 206 to 208 °C

Question: With Cc1nc(N)c2c(n1)OC(C)(C)C(c1ccc([C@H]3CC[C@H](Cc4nc(=O)o[nH]4)CC3)cc1)=N2 [Example 2-151] as the compound, how does the pIC50 (human DGAT1) read?
Answer: > 8.00

Question: And the melting point?
Answer: > 250 °C

Question: With Cc1nc(N)c2c(n1)OC(C)(C)C(c1ccc([C@H]3CC[C@H](CN4CCCC(O)C4=O)CC3)c(Cl)c1)=N2 (stereo partly drawn) [Example 6-19] as the compound, how does the pIC50 (human DGAT1) read?
Answer: 7.00 to 8.00

Question: And the melting point?
Answer: 225 to 226 °C

Question: With CC1(C)Oc2ncnc(N)c2N=C1c1ccc([C@H]2CC[C@H](CC(=O)N3CCC(O)C3)CC2)cc1 (stereo partly drawn) [Example 2-101] as the compound, how does the pIC50 (human DGAT1) read?
Answer: 7.00 to 8.00

Question: What about the melting point of the same compound?
Answer: 237 to 239 °C

Question: What does the source list for Cc1nc(N)c2c(n1)OC(C)(C)C(c1ccc([C@H]3CC[C@H](Cc4cc(O)[nH]n4)CC3)c(Cl)c1)=N2 [Example 6-12]?
Answer: pIC50 (human DGAT1): > 8.00; melting point: 171 to 173 °C

Question: With CC1(C)Oc2ncnc(N)c2N=C1c1ccc([C@H]2CC[C@H](CNS(C)(=O)=O)CC2)cc1 [Example 2-58] as the compound, how does the pIC50 (human DGAT1) read?
Answer: 7.00 to 8.00

Question: What about the melting point of the same compound?
Answer: 251 to 252 °C

Question: With CC1(C)Oc2ncnc(N)c2N=C1c1ccc([C@H]2CC[C@H](CCO)CC2)cc1 [Example 2-79] as the compound, how does the pIC50 (human DGAT1) read?
Answer: 7.00 to 8.00

Question: And the melting point?
Answer: 207 to 208 °C

Question: With CN(C)c1ccc(-c2ccc(C3=Nc4c(N)ncnc4OC3(C)C)cc2)cc1 [Example 2-30] as the compound, how does the pIC50 (human DGAT1) read?
Answer: < 7.00

Question: And the melting point?
Answer: 210 to 211 °C

Question: What does the source list for Nc1ncnc2c1N=C(c1c(F)c(F)c(F)c(F)c1F)CO2 [Example 1-31]?
Answer: pIC50 (human DGAT1): < 7.00; melting point: 190 to 192 °C

Question: With CC1(C)Oc2nc(C(F)(F)F)nc(N)c2N=C1c1ccc([C@H]2CC[C@H](CNC(N)=O)CC2)c(Cl)c1 [Example 6-22] as the compound, how does the pIC50 (human DGAT1) read?
Answer: 7.00 to 8.00

Question: And the melting point?
Answer: 147 °C (dec.)

Question: With Cc1nc(N)c2c(n1)OC(C)(C)C(c1ccc([C@H]3CC[C@H](CNC4=NCCO4)CC3)cc1)=N2 [Example 2-162] as the compound, how does the pIC50 (human DGAT1) read?
Answer: 7.00 to 8.00

Question: And the melting point?
Answer: 216 to 250 °C

Question: With Cc1nc(N)c2c(n1)OC(C)(C)C(c1ccc([C@H]3CC[C@H](CCNC(=O)C(C)(C)O)CC3)cc1)=N2 [Example 2-141] as the compound, how does the pIC50 (human DGAT1) read?
Answer: 7.00 to 8.00

Question: And the melting point?
Answer: 221 to 223 °C

Question: With CC1(C)Oc2ncnc(N)c2N=C1c1ccc([C@H]2CC[C@H](CC(=O)N3CC[C@@H](O)C3)CC2)cc1 [Example 2-103] as the compound, how does the pIC50 (human DGAT1) read?
Answer: 7.00 to 8.00

Question: And the melting point?
Answer: 231 to 232 °C

Question: With CC1(C)Oc2ncnc(N)c2N=C1c1ccc(N2CCC(C(=O)O)CC2)cc1 [Example 4-4] as the compound, how does the pIC50 (human DGAT1) read?
Answer: 7.00 to 8.00

Question: What about the melting point of the same compound?
Answer: > 240 °C

Question: With CC1(C)Oc2ncnc(N)c2N=C1c1ccc([C@H]2CC[C@H](C(=O)N3CCC(C(=O)O)CC3)CC2)cc1 [Example 2-207] as the compound, how does the pIC50 (human DGAT1) read?
Answer: 7.00 to 8.00

Question: And the melting point?
Answer: > 250 °C

Question: With Cc1nc(N)c2c(n1)OC(C)(C)C(c1ccc([C@H]3CC[C@H](CNC(=O)C(O)CCO)CC3)cc1)=N2 (stereo partly drawn) [Example 2-164] as the compound, how does the pIC50 (human DGAT1) read?
Answer: 7.00 to 8.00

Question: What about the melting point of the same compound?
Answer: 222 to 225 °C

Question: With Nc1ncnc2c1N=C(c1ccc(OC(F)(F)F)cc1)CO2 [Example 1-23] as the compound, how does the pIC50 (human DGAT1) read?
Answer: < 7.00

Question: What about the melting point of the same compound?
Answer: 209 to 212 °C

Question: What does the source list for CC1(C)Oc2ncnc(N)c2N=C1c1ccc([C@H]2CC[C@H](CC(=O)N3CCCCC3)CC2)cc1 [Example 2-93]?
Answer: pIC50 (human DGAT1): 7.00 to 8.00; melting point: 146 to 147 °C

Question: Which results are given for CC(=O)N1CCC(c2ccc(C3=Nc4c(N)ncnc4OC3(C)C)cc2)CC1 [Example 3-3]?
Answer: pIC50 (human DGAT1): < 7.00; melting point: 232 to 237 °C

Question: With CC1(C)Oc2ncnc(N)c2N=C1c1ccc([C@H]2CC[C@H](CNC(=O)[C@@H]3C[C@@H](O)CN3)CC2)cc1 [Example 2-132] as the compound, how does the pIC50 (human DGAT1) read?
Answer: 7.00 to 8.00

Question: What about the melting point of the same compound?
Answer: 217 to 218 °C

Question: With CC(C)c1ccc(C2=Nc3c(N)ncnc3OC2)cc1 [Example 1-9] as the compound, how does the pIC50 (human DGAT1) read?
Answer: < 7.00

Question: What about the melting point of the same compound?
Answer: 176 to 178 °C

Question: With CC1(C)Oc2ncnc(N)c2N=C1c1ccc([C@H]2CC[C@H](CC3SC(=O)NC3=O)CC2)cc1 (stereo partly drawn) [Example 2-64] as the compound, how does the pIC50 (human DGAT1) read?
Answer: 7.00 to 8.00

Question: What about the melting point of the same compound?
Answer: > 230 °C

Question: With Cc1nc(N)c2c(n1)OC(C)(C)C(c1ccc([C@H]3CC[C@H](CCc4nc(=O)[nH]n4C)CC3)cc1)=N2 [Example 2-198] as the compound, how does the pIC50 (human DGAT1) read?
Answer: 7.00 to 8.00

Question: What about the melting point of the same compound?
Answer: > 250 °C

Question: Which results are given for CC1(C)Oc2ncnc(N)c2N=C1c1ccc([C@H]2CC[C@H](CN3CCC(CCO)CC3)CC2)cc1 [Example 2-227]?
Answer: pIC50 (human DGAT1): < 7.00; melting point: 198 to 200 °C

Question: With Cc1nc(N)c2c(n1)OC(C)(C)C(c1ccc([C@H]3CC[C@H](CNC(=O)CCO)CC3)cc1)=N2 [Example 2-140] as the compound, how does the pIC50 (human DGAT1) read?
Answer: 7.00 to 8.00

Question: What about the melting point of the same compound?
Answer: 223 to 224 °C

Question: With CCc1ccc(C2=Nc3c(N)ncnc3OC2)cc1 [Example 1-19] as the compound, how does the pIC50 (human DGAT1) read?
Answer: < 7.00

Question: And the melting point?
Answer: 191 to 193 °C

Question: Which results are given for CC1(C)Oc2ncnc(N)c2N=C1c1ccc([C@H]2CC[C@H](CN3CCN(C(=O)CO)CC3)CC2)cc1 [Example 2-247]?
Answer: pIC50 (human DGAT1): 7.00 to 8.00; melting point: 205 to 206 °C

Question: What does the source list for CCN(C)C(=O)CC[C@H]1CC[C@H](c2ccc(C3=Nc4c(N)ncnc4OC3(C)C)cc2)CC1 [Example 2-188]?
Answer: pIC50 (human DGAT1): 7.00 to 8.00; melting point: 173 to 175 °C

Question: With CC1(C)Oc2ncnc(N)c2N=C1c1ccc(OC2CCCCC2)cc1 [Example 2-32] as the compound, how does the pIC50 (human DGAT1) read?
Answer: < 7.00

Question: And the melting point?
Answer: 174 to 175 °C

Question: With CC1(C)Oc2ncnc(N)c2N=C1c1ccc([C@H]2CC[C@H](CC(=O)N3C[C@@H](O)[C@@H](O)C3)CC2)cc1 [Example 2-106] as the compound, how does the pIC50 (human DGAT1) read?
Answer: 7.00 to 8.00

Question: And the melting point?
Answer: 250 to 252 °C

Question: With CC1(C)Oc2ncnc(N)c2N=C1c1cccc(OCc2ccccc2)c1 [Example 5-2] as the compound, how does the pIC50 (human DGAT1) read?
Answer: < 7.00

Question: And the melting point?
Answer: 130 to 131 °C

Question: Which results are given for Cc1nc(N)c2c(n1)OC(C)(C)C(c1ccc([C@H]3CC[C@H](CNC(=O)C(O)C(C)(C)CO)CC3)cc1)=N2 (stereo partly drawn) [Example 2-163]?
Answer: pIC50 (human DGAT1): 7.00 to 8.00; melting point: 219 to 221 °C

Question: With CC1(C)Oc2ncnc(N)c2N=C1c1ccc([C@H]2CC[C@H](SCC(=O)O)CC2)cc1 [Example 2-112] as the compound, how does the pIC50 (human DGAT1) read?
Answer: 7.00 to 8.00

Question: And the melting point?
Answer: > 250 °C

Question: With CN1CCN(C(=O)C[C@H]2CC[C@H](c3ccc(C4=Nc5c(N)ncnc5OC4(C)C)cc3)CC2)CC1 [Example 2-92] as the compound, how does the pIC50 (human DGAT1) read?
Answer: 7.00 to 8.00

Question: And the melting point?
Answer: 113 to 115 °C

Question: With Nc1nc(N)c2c(n1)OCC(c1ccc(Br)cc1)=N2 [Example 1-26] as the compound, how does the pIC50 (human DGAT1) read?
Answer: < 7.00

Question: And the melting point?
Answer: > 220 °C

Question: With CC1(C)Oc2ncnc(N)c2N=C1c1ccc2c(c1)C(CC(=O)O)CCC2 (stereo not drawn) [Example 2-68] as the compound, how does the pIC50 (human DGAT1) read?
Answer: < 7.00

Question: What about the melting point of the same compound?
Answer: > 250 °C

Question: With CN(C)C(=O)CC[C@H]1CC[C@H](c2ccc(C3=Nc4c(N)ncnc4OC3(C)C)cc2)CC1 [Example 2-186] as the compound, how does the pIC50 (human DGAT1) read?
Answer: 7.00 to 8.00

Question: What about the melting point of the same compound?
Answer: 200 to 201 °C

Question: Which results are given for CC1(C)Oc2ncnc(N)c2N=C1c1ccc([C@H]2CC[C@H](NS(C)(=O)=O)CC2)cc1 [Example 2-210]?
Answer: pIC50 (human DGAT1): 7.00 to 8.00; melting point: > 250 °C

Question: With CN(C)c1nc(N)c2c(n1)OCC(c1ccc(Br)cc1)=N2 [Example 1-30] as the compound, how does the pIC50 (human DGAT1) read?
Answer: < 7.00

Question: What about the melting point of the same compound?
Answer: > 220 °C
